Patent US11419921B2, “Methods of treating neurological disorders” (EnClear Therapies, Inc., priority 2018, dated 2022)
One block for each substance: values may come before it.

Experiments:
[1] = test system: (GR)10; test: Cleavage of (GR)10 by enzymes in solution (PBS with CaCl2 and MgCl2), LC/MS of GR repeats; format: biochemical; conditions: (GR)10 50 μM
Protocol: • (GR)10 dipeptide (also (GR)8, (GR)6, (GR)4, (GR)2) were synthetized by solid-phase synthesis by CanPeptide; All peptides are uncapped and supplied lyophilized with TFA as counter ions. Purity was always above 95%. • Buffer: PBS buffer containing CaCl2 and MgCl2. • Stock solution of enzyme (e.g., 10 mg/mL) (prepared per manufacturer instructions) in PBS. Activators added as necessary. • Working solution of protein of the desired concentration (e.g., 100 μg/mL) prepared immediately before use by diluting the stock solution (e.g., 5 μL of 10 mg/mL stock solution) in PBS buffer (e.g., in 495 μL of PBS). Exemplary Procedure Using 50 μM Concentrations of (GR)10
25 μL of a 100 μM solution of (GR)10 was added to each well of a 96-well plate. 25 μL of a solution of enzyme (two times the desired final enzyme concentration) was added, and the plates were incubated at room temperature. At the specified time points (5 minutes, 10 minutes, 30 minutes, 60 minutes, and 180 minutes) 2.5 μL of a 10% TFA solution were added to stop the reaction. For the time 0 min well, the TFA was added to the well before addition of the enzyme. After last time point, all samples were further diluted with 150 μL of dilution solution. The quenched reaction mixtures were analyzed by LC/MS to determine the concentration of GR repeats of different lengths.
The chromatography and mass spectrometry conditions utilized are shown in Table 2 and Table 3, respectively.

[2] = test system: (GR)10; test: (GR)10 digestion by immobilized proteases stored at 4° C. for over 2 months; format: biochemical; conditions: 200 μM (GR)10 in PBS, 5 or 60 minute treatment, FIGS. 8C, 8D
Protocol: (GR)10 was prepared in water to a stock concentration of 10 mM then diluted to a concentration of 200 μM in PBS with Ca^2+ and Mg^2+. (GR)10 samples were then treated with agarose resins having immobilized trypsin or elastase, PBS alone, or agarose resin alone, for 5 minutes or 60 minutes at room temperature. Resins were prepared by a routine method as commonly used by persons of ordinary skill in the art (e.g., the binding reaction described in the POROS™ 20 AL, EP and OH Perfusion Chromatography Bulk Media for Activated Affinity Chromatography Product Information Sheet, ThermoFisher Scientific, Waltham, Mass., Pub. No. 8-0031-40-0993, Rev. C., (incorporated herein by reference in its entirety)) and stored at 4° C. for over 2 months.
50 μl of treated samples were prepared for LC/MS analysis by adding 2.5 μl of 10% trifluoroacetic acid to each sample and 150 μl of dilution solution (0.5% formic acid in ACN/MeOH [50:50]).

[3] = test system: iCell® motor neurons; test: Toxicity of (GR)10, untreated or protease-treated, on iCell motor neurons; format: cell-based; conditions: (GR)10 concentrations of 25, 50 and 100 μM
Protocol: 200 μM of (GR)10 were diluted in human cerebrospinal fluid (CSF) and 400 μL were applied to each immobilized proteases. The reaction was incubated 5 minutes at room temperature with end-to-end mixing. Columns were spun down 1 minute at 1,000 Xg to recover digested GR dipeptides. Columns were washed with 12 resin volumes of PBS. The procedure was repeated with 60 minutes digestion time. 100 μL of each samples were transferred to a clean tube, flash-frozen and subsequently used for LC/MS quantification of GR repeats of different lengths. The remaining 300 μL of each samples were flash-frozen and used to assess neuron toxicity.
300 μL of CSF were applied to each immobilized proteases and incubated 60 minutes at room temperature with end-to-end mixing. Columns were spun down 1 minute at 1,000 Xg to recover treated CSF. Samples were flash-frozen and subsequently used to test neuron toxicity.
This example describes the reduced toxicity of (GR)10 on in vitro neuronal cells by digestion of (GR)10 with proteases.

- (GR)1 concentration ([1]; enzyme 2.5 μg/mL, 0 min): BLQ
- (GR)2 concentration ([1]; enzyme 2.5 μg/mL, 0 min): BLQ
- (GR)4 concentration ([1]; enzyme 2.5 μg/mL, 0 min): 0.1 µM
- (GR)6 concentration ([1]; enzyme 2.5 μg/mL, 0 min): 0.1 µM
- (GR)8 concentration ([1]; enzyme 2.5 μg/mL, 0 min): 1.1 µM
- (GR)10 concentration ([1]; enzyme 2.5 μg/mL, 0 min): 37.7 µM
- (GR)1 concentration ([1]; enzyme 2.5 μg/mL, 5 min): BLQ
- (GR)2 concentration ([1]; enzyme 2.5 μg/mL, 5 min): BLQ
- (GR)4 concentration ([1]; enzyme 2.5 μg/mL, 5 min): 0.1 µM
- (GR)6 concentration ([1]; enzyme 2.5 μg/mL, 5 min): 0.1 µM
- (GR)8 concentration ([1]; enzyme 2.5 μg/mL, 5 min): 1.5 µM
- (GR)10 concentration ([1]; enzyme 2.5 μg/mL, 5 min): 42.9 µM
- (GR)1 concentration ([1]; enzyme 2.5 μg/mL, 10 min): BLQ
- (GR)2 concentration ([1]; enzyme 2.5 μg/mL, 10 min): BLQ
- (GR)4 concentration ([1]; enzyme 2.5 μg/mL, 10 min): 0.1 µM
- (GR)6 concentration ([1]; enzyme 2.5 μg/mL, 10 min): BLQ
- (GR)8 concentration ([1]; enzyme 2.5 μg/mL, 10 min): 1.4 µM
- (GR)10 concentration ([1]; enzyme 2.5 μg/mL, 10 min): 46.7 µM
- (GR)1 concentration ([1]; enzyme 2.5 μg/mL, 30 min): BLQ
- (GR)2 concentration ([1]; enzyme 2.5 μg/mL, 30 min): 0.1 µM
- (GR)4 concentration ([1]; enzyme 2.5 μg/mL, 30 min): 0.2 µM
- (GR)6 concentration ([1]; enzyme 2.5 μg/mL, 30 min): 0.1 µM
- (GR)8 concentration ([1]; enzyme 2.5 μg/mL, 30 min): 1.3 µM
- (GR)10 concentration ([1]; enzyme 2.5 μg/mL, 30 min): 49.1 µM
- (GR)1 concentration ([1]; enzyme 2.5 μg/mL, 60 min): 0.1 µM
- (GR)2 concentration ([1]; enzyme 2.5 μg/mL, 60 min): 0.2 µM
- (GR)4 concentration ([1]; enzyme 2.5 μg/mL, 60 min): 0.3 µM
- (GR)6 concentration ([1]; enzyme 2.5 μg/mL, 60 min): 0.1 µM
- (GR)8 concentration ([1]; enzyme 2.5 μg/mL, 60 min): 1.1 µM
- (GR)10 concentration ([1]; enzyme 2.5 μg/mL, 60 min): 56.2 µM
- (GR)1 concentration ([1]; enzyme 2.5 μg/mL, 120 min): 0.2 µM
- (GR)2 concentration ([1]; enzyme 2.5 μg/mL, 120 min): 0.2 µM
- (GR)4 concentration ([1]; enzyme 2.5 μg/mL, 120 min): 0.4 µM
- (GR)6 concentration ([1]; enzyme 2.5 μg/mL, 120 min): 0.3 µM
- (GR)8 concentration ([1]; enzyme 2.5 μg/mL, 120 min): BLQ
- (GR)10 concentration ([1]; enzyme 2.5 μg/mL, 120 min): 45.3 µM
- (GR)1 concentration ([1]; enzyme 10 μg/mL, 0 min): BLQ
- (GR)2 concentration ([1]; enzyme 10 μg/mL, 0 min): BLQ
- (GR)4 concentration ([1]; enzyme 10 μg/mL, 0 min): 0.1 µM
- (GR)6 concentration ([1]; enzyme 10 μg/mL, 0 min): BLQ
- (GR)8 concentration ([1]; enzyme 10 μg/mL, 0 min): 1.3 µM
- (GR)10 concentration ([1]; enzyme 10 μg/mL, 0 min): 52.0 µM
- (GR)1 concentration ([1]; enzyme 10 μg/mL, 5 min): 0.1 µM
- (GR)2 concentration ([1]; enzyme 10 μg/mL, 5 min): 0.1 µM
- (GR)4 concentration ([1]; enzyme 10 μg/mL, 5 min): 0.2 µM
- (GR)6 concentration ([1]; enzyme 10 μg/mL, 5 min): BLQ
- (GR)8 concentration ([1]; enzyme 10 μg/mL, 5 min): BLQ
- (GR)10 concentration ([1]; enzyme 10 μg/mL, 5 min): 54.8 µM
- (GR)1 concentration ([1]; enzyme 10 μg/mL, 10 min): 0.1 µM
- (GR)2 concentration ([1]; enzyme 10 μg/mL, 10 min): 0.1 µM
- (GR)4 concentration ([1]; enzyme 10 μg/mL, 10 min): 0.2 µM
- (GR)6 concentration ([1]; enzyme 10 μg/mL, 10 min): 0.1 µM
- (GR)8 concentration ([1]; enzyme 10 μg/mL, 10 min): 1.0 µM
- (GR)10 concentration ([1]; enzyme 10 μg/mL, 10 min): 59.4 µM
- (GR)1 concentration ([1]; enzyme 10 μg/mL, 30 min): 0.3 µM
- (GR)2 concentration ([1]; enzyme 10 μg/mL, 30 min): 0.4 µM
- (GR)4 concentration ([1]; enzyme 10 μg/mL, 30 min): 0.4 µM
- (GR)6 concentration ([1]; enzyme 10 μg/mL, 30 min): 0.4 µM
- (GR)8 concentration ([1]; enzyme 10 μg/mL, 30 min): 1.3 µM
- (GR)10 concentration ([1]; enzyme 10 μg/mL, 30 min): 48.6 µM
- (GR)1 concentration ([1]; enzyme 10 μg/mL, 60 min): 0.5 µM
- (GR)2 concentration ([1]; enzyme 10 μg/mL, 60 min): 0.6 µM
- (GR)4 concentration ([1]; enzyme 10 μg/mL, 60 min): 0.8 µM
- (GR)6 concentration ([1]; enzyme 10 μg/mL, 60 min): 0.5 µM
- (GR)8 concentration ([1]; enzyme 10 μg/mL, 60 min): 2.4 µM
- (GR)10 concentration ([1]; enzyme 10 μg/mL, 60 min): 55.2 µM
- (GR)1 concentration ([1]; enzyme 10 μg/mL, 120 min): 1.1 µM
- (GR)2 concentration ([1]; enzyme 10 μg/mL, 120 min): 1.4 µM
- (GR)4 concentration ([1]; enzyme 10 μg/mL, 120 min): 1.6 µM
- (GR)6 concentration ([1]; enzyme 10 μg/mL, 120 min): 1.3 µM
- (GR)8 concentration ([1]; enzyme 10 μg/mL, 120 min): 3.0 µM
- (GR)10 concentration ([1]; enzyme 10 μg/mL, 120 min): 48.7 µM
Substance: Thrombin

Substance: agarose resin having immobilized elastase: elastase immobilized in-house on agarose resin
- (GR)10 proteolytic activity after storage at 4° C. for over 2 months [2]: did not exhibit substantial (GR)10 proteolytic activity
- Effect of protease treatment of (GR)10 on (GR)10 toxicity [3]: abrogation of (GR)10 toxicity
